Results published in paper PMC4731787, “Structural basis for the recognition of two consecutive mutually interacting DPF motifs by the SGIP1 μ homology domain” (Scientific Reports, 2016).

Legend:
human full-length FCHo1 = conditions: pull-down assay; lower than the other longer fragments with more DPF motifs tested in the same reference; ref Umasankar et al.23; cited from earlier work
Text: page 12: Supplementary Table 3 Regions of Eps15, Eps15R, and Dab2, involved in binding to the µHDs of SGIP1/ SGIP1α/FCHo1/FCHo2 from various sources. µHD-containing protein µHD-binding Region involved in binding Number of DPF motifs Method used to confirm binding Strength of Reference protein to the µHD in the binding region affinity mouse SGIP1 µHD (aa501–807) Eps15 a residues 594–896 15 b pull-down assay (competition) unknown Reider et al. 8 mouse SGIP1α µHD (aa561–854) rat Eps15 residues 593–894 15 pull-down assay unknown Uezu et al.19 mouse SGIP1α µHD (aa428–854) rat Eps15 residues 636–747 ...

SGIP1 µHD N670D = molecular target: T1, SGIP1 µHD N670D (Homo sapiens, UniProt Q9BQI5, N670D); assay: ITC of Eps15 fragments with the SGIP1 μHD N670D mutant; assay type: binding
T1 construct: the SGIP1 μHD (residues 552 to 828); GST (N, cleaved yes); made in house; host or cells: Escherichia coli (as for the wild-type μHD)
T1 sequence (Q9BQI5 552-828 N670D): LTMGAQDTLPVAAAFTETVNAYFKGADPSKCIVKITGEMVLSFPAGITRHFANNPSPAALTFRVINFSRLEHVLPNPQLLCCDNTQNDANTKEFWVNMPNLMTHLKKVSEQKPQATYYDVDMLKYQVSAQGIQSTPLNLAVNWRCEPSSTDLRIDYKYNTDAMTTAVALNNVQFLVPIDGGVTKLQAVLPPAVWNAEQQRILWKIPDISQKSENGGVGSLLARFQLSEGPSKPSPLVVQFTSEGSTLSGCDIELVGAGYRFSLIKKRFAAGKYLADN
Procedure: (§1) For the majority of the ITC experiments, the SGIP1 μHD, its mutants, or the FCHo1 μHD, in 50 mM Tris-HCl buffer (pH 8.0) containing 50 mM NaCl, was loaded in the sample cell, in a volume of 1.42 ml, and titrated with various Eps15-derived fragments or peptides in the same buffer, with an initial 5 μl injection and subsequent 10 μl injections, for a total of 25 injections. The titrations were performed while the samples were stirred at 310 r.p.m. at 25 °C. Each injection was followed by an interval of 4 min, to allow baseline stabilization. For the other ITC experiments indicated in Supplementary Table 2, the Eps15-derived fragments or peptides in the sample cell were titrated with the SGIP1 or FCHo1 μHD. All ITC experiments were performed on a VP-ITC microcalorimeter (MicroCal, LLC) and repeated twice, and the data were processed with the program NITPIC[42]. The two data sets from each ITC experiment were analyzed by global weighted least-squares fitting with the program SEDPHAT[43]. Figures for the ITC data were created with the program GUSSI (http://biophysics.swmed.edu/MBR/software.html). To obtain the values of the traditional stoichiometric parameter N in our ITC data analyses (Supplementary Table 2), we used the values of the parameters of the incompetent fractions of proteins and ligands. […]

[1] = molecular target: T2, SGIP1 μHD (residues 552 to 828) (Homo sapiens, UniProt Q9BQI5); assay: ITC of Eps15 fragments with the SGIP1 μHD; assay type: binding; conditions: for -TΔS / ΔG / ΔH: 25 °C; for -TΔS / ΔG / ΔH / N (binding ratio of Eps15 fragment to μHD): μHD in cell titrated with fragment, single-site model; for ΔH / N (binding ratio of Eps15 fragment to μHD): ± 68.3% confidence interval
T2 construct: the SGIP1 μHD (residues 552 to 828); GST (N, cleaved yes); made in house; host or cells: Escherichia coli BL21-Gold (DE3) or Rosetta2
T2 sequence (Q9BQI5 552-828): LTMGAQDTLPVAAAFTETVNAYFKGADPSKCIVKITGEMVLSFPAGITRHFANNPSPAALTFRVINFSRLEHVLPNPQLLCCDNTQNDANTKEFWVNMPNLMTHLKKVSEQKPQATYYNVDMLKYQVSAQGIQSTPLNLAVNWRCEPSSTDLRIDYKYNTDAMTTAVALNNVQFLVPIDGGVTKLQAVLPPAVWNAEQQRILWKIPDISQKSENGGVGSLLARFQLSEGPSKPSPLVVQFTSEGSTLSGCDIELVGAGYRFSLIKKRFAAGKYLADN
Outline: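 Isothermal titration calorimetry was run at 25 °C in 50 mM Tris-HCl pH 8.0, 50 mM NaCl, mostly titrating Eps15 fragments or peptides into μHD protein in the cell (25 injections, 4 min apart). Some runs reversed the titration direction. Duplicate runs were globally fitted to single- or two-site models, with N derived from incompetent-fraction parameters.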

[2] = molecular target: T3, FCHo1 µHD (residues 623 to 889) (Homo sapiens, UniProt O14526); assay: ITC of Eps15 fragments with the FCHo1 μHD; assay type: binding; conditions: FCHo1 μHD in cell titrated with fragment, single-site model
T3 construct: GST (N, cleaved yes); made in house; host or cells: Escherichia coli (as for the SGIP1 μHD)
T3 sequence (O14526 623-889): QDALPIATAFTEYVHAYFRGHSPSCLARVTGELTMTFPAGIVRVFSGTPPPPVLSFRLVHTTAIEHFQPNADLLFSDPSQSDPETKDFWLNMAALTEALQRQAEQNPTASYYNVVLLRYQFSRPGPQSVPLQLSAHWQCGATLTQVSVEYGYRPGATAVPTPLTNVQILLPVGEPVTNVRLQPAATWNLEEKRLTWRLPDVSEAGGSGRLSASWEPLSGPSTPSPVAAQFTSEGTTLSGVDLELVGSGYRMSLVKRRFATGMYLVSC
Procedure: For the majority of the ITC experiments, the SGIP1 μHD, its mutants, or the FCHo1 μHD, in 50 mM Tris-HCl buffer (pH 8.0) containing 50 mM NaCl, was loaded in the sample cell, in a volume of 1.42 ml, and titrated with various Eps15-derived fragments or peptides in the same buffer, with an initial 5 μl injection and subsequent 10 μl injections, for a total of 25 injections. The titrations were performed while the samples were stirred at 310 r.p.m. at 25 °C. Each injection was followed by an interval of 4 min, to allow baseline stabilization. For the other ITC experiments indicated in Supplementary Table 2, the Eps15-derived fragments or peptides in the sample cell were titrated with the SGIP1 or FCHo1 μHD. All ITC experiments were performed on a VP-ITC microcalorimeter (MicroCal, LLC) and repeated twice, and the data were processed with the program NITPIC[42]. The two data sets from each ITC experiment were analyzed by global weighted least-squares fitting with the program SEDPHAT[43]. Figures for the ITC data were created with the program GUSSI (http://biophysics.swmed.edu/MBR/software.html). To obtain the values of the traditional stoichiometric parameter N in our ITC data analyses (Supplementary Table 2), we used the values of the parameters of the incompetent fractions of proteins and ligands. […] The values of the incompetent fractions are between 0 and 1, whereas the other parameter affecting the traditional parameter N, the number of sites, was fixed as 1 and 2, for the single- and two-site models, respectively. Thus, in the two-site model, the values of N for the first and second sites are identical in our ITC data analyses (Supplementary Table 2).

SGIP1 µHD K816E = molecular target: T4, SGIP1 µHD K816E (Homo sapiens, UniProt Q9BQI5, K816E); assay: ITC of Eps15 fragments with the SGIP1 μHD K816E mutant; assay type: binding
T4 construct: the SGIP1 μHD (residues 552 to 828); GST (N, cleaved yes); made in house; host or cells: Escherichia coli (as for the wild-type μHD)
T4 sequence (Q9BQI5 552-828 K816E): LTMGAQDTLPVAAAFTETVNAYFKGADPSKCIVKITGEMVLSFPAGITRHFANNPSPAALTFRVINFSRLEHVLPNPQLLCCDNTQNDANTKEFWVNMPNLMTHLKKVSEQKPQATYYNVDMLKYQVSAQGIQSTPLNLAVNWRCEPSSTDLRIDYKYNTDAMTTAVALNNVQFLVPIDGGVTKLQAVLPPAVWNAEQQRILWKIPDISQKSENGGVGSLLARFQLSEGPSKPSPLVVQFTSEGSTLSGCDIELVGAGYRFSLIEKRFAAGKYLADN
Procedure: as §1

[3] = 25 °C, 50 mM Tris-HCl pH 8.0, 50 mM NaCl, mutant μHD in cell titrated with fragment, two runs

binding to SGIP1 μHD with Asn670 replaced by Asp (in words) (SGIP1 µHD N670D)	Kd (SGIP1 µHD N670D; [3])	-TΔS [1] [kcal/mol]	ΔG [1] [kcal/mol]	ΔH [1] [kcal/mol]	N (binding ratio of Eps15 fragment to μHD) [1]	Kd ([2]; 25 °C, 50 mM Tris-HCl pH 8.0, 50 mM NaCl, global fit of two runs, ± 68.3% confidence interval) [µM]	-TΔS ([2]; 25 °C) [kcal/mol]	ΔG ([2]; 25 °C) [kcal/mol]	ΔH ([2]; 25 °C, ± 68.3% confidence interval) [kcal/mol]	N (binding ratio of Eps15 fragment to FCHo1 μHD) ([2]; ± 68.3% confidence interval)	binding to SGIP1 μHD with Lys816 replaced by Glu (in words) (SGIP1 µHD K816E)	Kd (SGIP1 µHD K816E; [3])	Substance	Strength of affinity (human full-length FCHo1)	binding to the SGIP1 μHD (in words) [1]
–	–	–	–	–	–	–	–	–	–	–	–	–	Eps15 residues 595–636: Eps15 region of a previous report, first DPF motifs of the high-affinity site, source assumed human (SKEEDPFNVDSSSLTGPVADTNLDFFQSDPFVGSDPFKDDPF; UniProt P42566 595-636, looked up, fragment)	low	–
abolished the binding	below detection limit	2.106	-6.166	-8.272 ± 0.679	0.66 ± 0.03	–	–	–	–	–	–	–	Ac-YDPFGGDPFKG-NH2 [Eps15-640–649]	–	–
–	–	3.482	-7.559	-11.041 ± 0.191	0.66 ± 0.01	5.5 ± 1.4	0.748	-7.175	-7.923 ± 1.098	0.64 ± 0.06	abolished the binding	below detection limit	Ac-YDPFGGDPFKGSDPFA-NH2 [Eps15-640–654]	–	slightly stronger affinity than Eps15-622–637
